Test results as given in patent US5362744A, “Tetrazole-substituted urea acat inhibitors” (Warner-Lambert Company, priority 1993, dated 1994).

Assays:
total cholesterol = test: in vivo screen designated APCC (total cholesterol in rats on PCC diet); parameters: species or system male Sprague-Dawley rats; conditions: Rattus norvegicus, PCC diet overnight, read-out: APCC (%ΔTC): percent change in total cholesterol between control and drug-treated animals
Description: In one in vivo screen designated APCC, male Sprague-Dawley rats (200 to 225 g) were randomly divided into treatment groups and dosed at 4 PM with either vehicle (CMC/Tween) or suspensions of compounds in vehicle. The normal chow diet was then replaced with the PCC diet (5.5% peanut oil, 1.5% cholesterol, and 0.5% cholic acid). The rats consumed this diet ad libitum during the night and were sacrificed at 8 AM to obtain blood samples for cholesterol analysis using standard procedures. Statistical differences between mean cholesterol values for the same vehicle were determined using analysis of variance followed by Fisher's least significant test. The results of this trial for representative compounds of the present invention appear in Table II wherein percent change means the difference in total cholesterol between control, and the drug-treated animals.

adrenal gland = test: in vivo toxicity screen in guinea pigs (adrenal histopathology); parameters: species or system male guinea pigs of the Hartley strain; conditions: 100 mg/kg daily by gavage, 2 weeks; for adrenal toxicity class: oleic acid vehicle
Method: The nontoxic nature of representative compounds of the present invention was measured and compared against previously disclosed tetrazole urea ACAT inhibitors using an in vivo toxicity screen developed by Dominick, et al., 1993. Male guinea pigs of the Hartley strain (450-500 g) were obtained from Charles River and randomly divided into treatment groups. They were fed standard guinea pig chow ad libitum and dosed daily (AM) by gavage (100 mg/kg). The test compounds were dissolved or suspended in an oleic acid vehicle to facilitate absorption. After 2 weeks the animals were sacrificed by CO2 asphyxiation in the nonfasted state 16 hours after the last dose. Adrenal glands were weighed, fixed in 10% formalin, processed by routine paraffin techniques, sectioned, and then stained with hematoxylin and eosin for light microscopy. Toxicity was defined by the incidence, severity, and complexity of adrenal histopathologic alterations in the zona fasciculata (e.g., adrenal cortical atrophy, increased coarse vacuolation, single cell necrosis, inflammatory cell infiltrates, mineralization/ectopic bone formation, and increased cytoplasmic eosinophilia).

CCCCCCCCCCCCn1nnc(N(C(=O)Nc2ccc(F)cc2F)c2ccccc2)n1 [Example 3, N'-(2,4-Difluorophenyl)-N-(2-dodecyl-2H-tetrazol-5-yl)-N-phenyl-urea]
change in vivo at 30 mg/kg (total cholesterol): -63%

COc1cc(OC)c(NC(=O)N(c2ccccc2)c2nnn(CCCCCCCCO)n2)c(OC)c1 [Example 14, N-[2-(8-hydroxyoctyl)-2H-tetrazol-5-yl]-N-phenyl-N'-(2,4,6-trimethoxyphenyl)-urea]
change in vivo at 30 mg/kg (total cholesterol): -15%

CCCCCCCCCCCCn1nnc(N(C(=O)Nc2c(C(C)C)cccc2C(C)C)C2CCCCC2)n1 [Example 4, N'-[2,6-bis(1-methylethyl)phenyl]-N-cyclohexyl-N-(2-dodecyl-2H-tetrazol-5-yl)-urea]
change in vivo at 30 mg/kg (total cholesterol): -10%

O=C(Nc1ccc(F)cc1F)N(c1ccccc1)c1nnn(CCCCCCCCOC2CCCCO2)n1 (racemic) [Example 12, (±)N'-(2,4-difluorophenyl)-N-phenyl-N-[2-[8-[(tetrahydro-2H-pyran-2-yl)oxy]octyl]-2H-tetrazol-5-yl]-urea]
change in vivo at 30 mg/kg (total cholesterol): -37%

CCN(CC)CCCCCCCCn1nnc(N(C(=O)Nc2c(C(C)C)cccc2C(C)C)c2ccccc2)n1 [Example 17, N'-[2,6-bis(1-methylethyl)phenyl]-N-[2-[8-(diethylamino)octyl]-2H-tetrazol-5-yl]-N-phenyl-urea]
change in vivo at 30 mg/kg (total cholesterol): -30%

CCCCCCCCCCCCn1nnc(N(C(=O)Nc2c(C(C)C)cccc2C(C)C)c2ccccc2)n1 [Example 1, N'-[2,6-Bis(1-methylethyl)phenyl]-N-(2-dodecyl-2H-tetrazol-5-yl)-N-phenyl-urea]
change in vivo at 30 mg/kg (total cholesterol): -52%

CCCCCCCCCCCCCn1nnc(NC(=O)Nc2c(C(C)C)cccc2C(C)C)n1 [N-[2,6-bis(1-methylethyl)-phenyl]-N'-(2-tridecyl-2H-tetrazol-5-yl)-urea]
cytotoxic zonal atrophy of the zona fasciculata (treated animals affected) (adrenal gland): 4/6
increased coarse vacuoles (animals affected) (adrenal gland): 5/6
inflammatory cell infiltrates (animals affected) (adrenal gland): 2/6
necrosis of the adrenal cortex (animals affected) (adrenal gland): 3/6
adrenal toxicity class (adrenal gland): highly toxic to the adrenal gland

COc1cc(OC)c(NC(=O)N(c2ccccc2)c2nnn(CCCCCCCCOC3CCCCO3)n2)c(OC)c1 (racemic) [Example 11, (±)N-phenyl-N-[2-[8-[(tetrahydro-2H-pyran-2-yl)oxy]octyl]-2H-tetrazol-5-yl]-N'-(2,4,6-trimethoxyphenyl)-urea]
change in vivo at 30 mg/kg (total cholesterol): -50%

CCCCCCCCCCCCCCn1nnc(N(C(=O)Nc2c(OC)cc(OC)cc2OC)c2ccccc2)n1 [Example 7, N-phenyl-N-(2-tetradecyl-2H-tetrazol-5-yl)-N'-(2,4,6-trimethoxyphenyl)-urea]
change in vivo at 30 mg/kg (total cholesterol): -22%

COc1cc(OC)c(NC(=O)N(c2ccccc2)c2nnn(CCCCCCCC=O)n2)c(OC)c1 [Example 16, N-[2-(8-oxooctyl)-2H-tetrazol-5-yl]-N-phenyl-N'-(2,4,6-trimethoxyphenyl)-urea]
change in vivo at 30 mg/kg (total cholesterol): -8%

CCCCCCCCCCCCn1nnc(N(C(=O)Nc2c(OC)cc(OC)cc2OC)C2CCCCC2)n1 [Example 5, N-cyclohexyl-N-(2-dodecyl-2H-tetrazol-5-yl)-N'-(2,4,6-trimethoxyphenyl)-urea]
change in vivo at 30 mg/kg (total cholesterol): -67%
drug related adrenal changes (adrenal gland): no drug related adrenal changes
adrenal toxicity class (adrenal gland): nontoxic to the adrenal gland

CCCCCCCCCCCCn1nnc(CN(Cc2ccccc2)C(=O)Nc2c(OC)cc(OC)cc2OC)n1 [Example 9, N-(2-Dodecyl-2H-tetrazol-5-ylmethyl)-N-(phenylmethyl)-N'-(2,4,6-trimethoxyphenyl)-urea]
change in vivo at 30 mg/kg (total cholesterol): -49%

CC(C)c1cccc(C(C)C)c1NC(=O)N(c1ccccc1)c1nnn(CCCCCCCCOC2CCCCO2)n1 (racemic) [Example 10, (±)N'-[2,6-bis(1-methylethyl)phenyl]-N-phenyl-N-[2-[8-[(tetrahydro-2H-pyran-2-yl)oxy]octyl]-2H-tetrazol-5-yl]-urea]
change in vivo at 30 mg/kg (total cholesterol): -42%

CC(C)c1cccc(C(C)C)c1NC(=O)N(c1ccccc1)c1nnn(CCCCCCCC=O)n1 [Example 15, N'-[2,6-bis(1-methylethyl)phenyl]-N-[2-(8-oxooctyl)-2H-tetrazol-5-yl]-N-phenyl-urea]
change in vivo at 30 mg/kg (total cholesterol): -29%

CC(C)c1cccc(C(C)C)c1NC(=O)N(c1ccccc1)c1nnn(CCCCCCCCO)n1 [Example 13, N'-[2,6-Bis(1-methylethyl)phenyl]-N-[2-(8-hydroxyoctyl)-2H-tetrazol-5-yl]-N-phenyl-urea]
change in vivo at 30 mg/kg (total cholesterol): -17%

CCCCCCCCCCCCn1nnc(N(C(=O)Nc2c(OC)cc(OC)cc2OC)c2ccccc2)n1 [Example 2, N-(2-dodecyl-2H-tetrazol-5-yl)-N-phenyl-N'-(2,4,6-trimethoxyphenyl)-urea]
change in vivo at 30 mg/kg (total cholesterol): -74%

CCCCCCCCCCCCn1nnc(N(C(=O)Nc2ccc(F)cc2F)C2CCCCC2)n1 [Example 6, N-Cyclohexyl-N'-(2,4-difluorophenyl)-N-(2-dodecyl-2H-tetrazol-5-yl)-urea]
change in vivo at 30 mg/kg (total cholesterol): -33%

CCCCCCCCCCCCn1nnc(NC(=O)Nc2c(C(C)C)cccc2C(C)C)n1 [N-[2,6-bis(1-methylethyl)-phenyl]-N'-(2-dodecyl-2H-tetrazol-5-yl)-urea]
cytotoxic zonal atrophy of the zona fasciculata (treated animals affected) (adrenal gland): 3/6
increased coarse vacuoles (animals affected) (adrenal gland): 5/6
inflammatory cell infiltrates (animals affected) (adrenal gland): 2/6
necrosis of the adrenal cortex (animals affected) (adrenal gland): 2/6
adrenal toxicity class (adrenal gland): highly toxic to the adrenal gland

CCCCCn1nnc(N(C(=O)Nc2c(OC)cc(OC)cc2OC)c2ccccc2)n1 [Example 8, N-(2-pentyl-2H-tetrazol-5-yl)-N-phenyl-N'-(2,4,6-trimethoxyphenyl)-urea]
change in vivo at 30 mg/kg (total cholesterol): -43%
